Experimental findings from patent publication US20160074298A1, “POLYPHENOL/FLAVONOID COMPOSITIONS AND METHODS OF FORMULATING ORAL HYGIENIC PRODUCTS” (VIZURI HEALTH SCIENCES LLC, priority 2014, published 2016) are described below.

Series [1] can be described thus: Stability in alkaline toothpaste with sodium bicarbonate and peroxide. Format: physicochemical. Particulars: high pH ~10-10.5; sodium bicarbonate, sodium carbonate peroxide, peroxide stabilizer. On the procedure:
It was experimentally determined that the toothpaste formulations containing both sodium bicarbonate and sodium carbonate peroxide together with stabilizing polymer formulations had pHs of ˜10-10.5. When aglycone flavone (i.e., apigenin and luteolin) powders were added to dentifrices including sodium bicarbonate, sodium bicarbonate peroxide and a peroxide stabilizer, it was also determined that soluble flavone sodium salts were formed that were stable in these highly oxidative peroxide compositions. The presence of stable soluble alkali metal flavone salts with highly anti-oxidant and anti-inflammatory properties in an emulsion formulation was totally unanticipated since aglycone flavones are prone to oxidative decomposition. Curcumin calcium chelate was fabricated and found to be stable in high pH PeroxiCare® toothpaste. Other curcumin chelates (Boron, Zn) were also found to be stable in this formulation, but were not tested in this study. This study was designed to determine if curcumin solubilized using either a heat solubilization or chelated salt technology performed in the same way as earlier results with the flavone apigenin. Vanillin is a breakdown product of curcumin and would be present if the curcumin had substantially decomposed (the lack of vanillin is indicative of a stable delivery of curcumin).

The nature of series [2]: Apigenin and EGCG in saliva following use of formulated toothpastes (Example 15). Format: in vivo, human. Particulars: formulated into a toothpaste product. On the procedure: This is a clinical study testing the effect of using one of 3 toothpaste products formulated with apigenin and epigallocatechin gallate (EGCG) on the retention of these flavonoids in the saliva. Briefly, 3 subjects provided saliva samples:
Each subject brushed their teeth for 2 min using the sulcular brushing technique with ˜1.8 gm toothpaste on a new toothbrush. Each subject brushed with only one of 3 products:
Saliva was collected at each time point in 50 mL Falcon tubes and immediately transferred to a freezer. All samples were transported to Tufts University within 8 hours of collection.
(§1) Apigenin in saliva was quantified using high performance liquid chromatograph (HPLC) with electrochemical detection (ECD). Apigenin and EGCG in 1 mL saliva was extracted using 3 ml acetonitrile. After 2 min of rigorous vortexing, the mixture was spun at 2,000 rpm for 15 min at 4° C. Supernatant was dried under N2 gas, reconstituted with mobile phase A, and analyzed for apigenin with HPLC-ECD. The limit of quantification (LOQ) for apigenin and EGCG in this assay is 15 and 25 ng/ml saliva, respectively.

The nature of series [3]: Heat solubilization in Kolliphor RH-40. Format: physicochemical. The text has this:
Step 1. […] Step 3. […] Step 4. […] About 5% solution was stable. Step 1. […] Step 3.

The nature of series [4]: Saliva concentrations of chronic 1% apigenin toothpaste users (Example 12). Format: in vivo, human. Conditions: chronic users of PeroxiCare with 1% apigenin. On the procedure:
Two subjects who have used PeroxiCare® with apigenin at a 1% concentration on a chronic basis provided saliva samples at:
as §1, with “Saliva was collected at each time point in 50 ml Falcon tubes and immediately transferred to a freezer. All samples were transported to Tufts University within 24 hours of collection. Apigenin” for “Apigenin”, “Apigenin” for “Apigenin and EGCG”, “ml” for “mL”

A short description of series [5]: Water solubility of flavonoid classes (Table XXIII). Format: physicochemical. Particulars: 20° C.
A short description of series [6]: Colorimetric retention of EGCG in saliva after brushing (Example 14). It counts as in vivo, human. Conditions: PeroxiCare toothpaste with 0.1 wt. % EGCG and 0.1 wt. % ascorbic acid, pH ~10.5; saliva after brushing and rinsing. The protocol: A saliva sample with an EGCG containing alkaline toothpaste was obtained (1) before brushing and (2) 1 minute after brushing immediately after rinsing. The subject brushed for 2 minutes using the sulcular brushing technique with ˜1.8 gm toothpaste on a toothbrush.
A 5 ml sample of saliva was collected 10 minutes prior to brushing. Tooth brushing was conducted for 2 minutes with 1.8 gm of toothpaste applied to the brush. One minute after brushing, the oral cavity was rinsed with 50 ml of water. Following rinsing, about 8 ml of saliva was collected. The pH of the saliva was measured. In addition, the saliva samples were further made alkaline with the addition of NaOH crystals and the color of the resulting sample noted.

A short description of series [7]: Solubilization in Listerine mouth rinse as sodium salt. Format: physicochemical. The protocol:
100 Grams of the Listerine® Resveratrol Containing Mouth Rinse Formulation was Prepared as Follows: • 1. 98.4 grams of the Listerine® caramel colored mouth rinse was added to a 300 ml Pyrex glass beaker. […] About 0.2 grams of fine NaOH crystals were added to the mixture from Step 2 and thoroughly mixed. A uniformly caramel colored blend resulted with a measured pH of ˜10. […] The pH of the mixture from Step 3 was adjusted to a pH 6.5 by the addition of about 0.2 grams of citric acid crystals. […] • 1. 98.6 grams of the Listerine® caramel colored mouthrinse was added to a 300 ml Pyrex glass beaker. […] About 0.2 grams of fine NaOH crystals were added to the mixture from Step 2 and thoroughly mixed. A uniformly caramel colored blend resulted with a measured pH of ˜10. […] The pH of the mixture from Step 2 was adjusted to a pH 8 by the addition of about 0.2 grams of citric acid crystals.

The nature of series [8]: Stability of aqueous microemulsions as a function of pH. It counts as physicochemical. Particulars: nonionic surfactants Polysorbate 80 and Cremophor/Kolliphor RH-40. An excerpt:
Stable microemulsions with apigenin and the nonionic surfactants, Polysorbate 80 and Cremophor/Kolliphor RH-40, were achieved provided a pH level of 8.0 to 8.5 was maintained. For luteolin, it as determined that a pH of 7 was required to maintain a stable aqueous microemulsion; and for resveratrol, a pH of >4.5 to 7.5.

Take `O=c1cc(-c2ccc(O)cc2)oc2cc(O)cc(O)c12` [Apigenin, 4′,5,7,-trihydroxyflavone]: in series [1], the “stability in alkaline peroxide toothpaste (PeroxiCare)” value (from here on “stability”) is recorded as “stable”. Moreover, in series [2], the “time found in saliva following toothpaste use” value is reported as “at least one hour”. In addition, the “stable apigenin concentrate in PS80” value (5.0 wt. % apigenin in PS80, heated approaching 300 degree C, cooled to ambient) was 50 mg/mL. In series [3], the “apigenin solubilized in RH-40” value is on record as “more than 5%”. Moreover, the “persistence of apigenin levels in saliva post-brushing” value in [4] is “at least 8 hours”.

With `O.Oc1cc(O)c2c(c1)O[C@H](c1ccc(O)c(O)c1)[C@@H](O)C2` [Catechin], the “Water Solubility” value in series [5] was ~5 mg/mL. Besides, under “20° C., thermal processing method, not the maximum solubility levels”, the “PS80 Solubility” value is 50 mg/mL.

Take `O=C(O[C@@H]1Cc2c(O)cc(O)cc2O[C@@H]1c1cc(O)c(O)c(O)c1)c1cc(O)c(O)c(O)c1` [Epigallocatechin Gallate (EGCG), Epigallocatechin gallate]: in [2], the “time found in saliva following toothpaste use” value is “at least one hour”. In addition, the “retention of EGCG in saliva by color change on alkalizing” value in [6] was “retained after brushing”.

In the case of `O=c1cc(-c2ccc(O)c(O)c2)oc2cc(O)cc(O)c12` [luteolin, 3′,4′,5,7-tetrahydroxyflavone], the “luteolin concentration of transparent solution” value in series [7] (adjusted to pH 8) came to 1.5 mg/mL. In addition, the “stability” value in [1] is listed as “stable”. In series [8], the “pH required to maintain a stable aqueous microemulsion” value came to 7.

As to `Oc1ccc(C=Cc2cc(O)cc(O)c2)cc1` [resveratrol], in [7] (adjusted to pH 6.5), the “resveratrol concentration of transparent solution” value is 1.2 mg/mL.

In the case of calcium-curcumin chelate, the “stability” value in [1] is recorded as “stable”. Moreover, the “behaviour in Kolliphor RH-40” value in series [3] (equivalent concentration of 20% curcumin) is “precipitates out”. Moreover, the “stable solution in Kolliphor RH-40” value in series [3] (heat solubilized) is reported as “About 5%”.
